This note sets out measurements from ChEMBL document CHEMBL1201862, “PubChem BioAssay data set” (2004).

Some test systems named below: SK-MEL-28; OVCAR-5; TK-10; NCI-H460; SR; LXFL 529; HL-60; OVCAR-3; SF-539; HCC 2998; A498; OVCAR-8; SK-MEL-2; DU-145; SNB-19; T47D; EKVX; ACHN; UACC-62; M14.
What all share (test): inhibition of tumour cell growth, NCI panel, 48 h

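Step 1: Grow cells in 96-well plates. Step 2: Expose to compound for 48 hours at 5 concentrations. Step 3: Interpolate endpoints linearly; if unreached, use highest concentration. GI50 = concentration required for 50% inhibition of growth.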 Active and inactive are the calls of the source. No stated cut-off is given here; in the data, active = GI50 up to about 1.1 µM and inactive = higher.

Regarding `CC1(C)OCN(c2ccc(Cl)cc2)Cn2c1nc1ccccc12`, the GI50 is > 19.9 µM (inactive) in the assay on SK-MEL-28; > 100 µM (inactive) in the assay with OVCAR-5; > 100 µM (inactive) in the assay on TK-10; > 21.7 µM (inactive) in the assay on NCI-H460; 9.25 µM (inactive) in the assay on SR; 1.31 µM (inactive) in the assay with LXFL 529. The GI50 with HL-60 was 11.2 µM (inactive); in the assay on OVCAR-3 it was > 51.9 µM (inactive); with SF-539, 6.5 µM (inactive); with HCC 2998 it was 3.56 µM (inactive); in the assay with A498, 48.9 µM (inactive); with OVCAR-8, 69 µM (inactive). The GI50 in the assay with SK-MEL-2 is > 54 µM (inactive); with DU-145 it was 6.85 µM (inactive); in the assay on SNB-19, > 71.3 µM (inactive); with T47D, > 100 µM (inactive); in the assay with EKVX it was 63 µM (inactive); with ACHN, 31.8 µM (inactive). In the assay with UACC-62, the GI50 was 1.41 µM (inactive).
As for `CCOc1cc2c(C(=O)CC)c(O)ccc2o1`, the GI50 was > 35.3 µM (inactive) in the assay with SK-MEL-28; > 100 µM (inactive) in the assay on OVCAR-5; > 79.8 µM (inactive) in the assay with TK-10; > 100 µM (inactive) in the assay with NCI-H460; 33.7 µM (inactive) in the assay on SR; 64.9 µM (inactive) in the assay with LXFL 529. In addition, the GI50 was 12.9 µM (inactive) in the assay with HL-60; > 100 µM (inactive) in the assay on OVCAR-3; > 100 µM (inactive) with SF-539; > 55 µM (inactive) in the assay on M14; > 100 µM (inactive) in the assay on HCC 2998; > 52.7 µM (inactive) in the assay with A498. Also, the GI50 in the assay with OVCAR-8 is > 79.6 µM (inactive); with SK-MEL-2, > 100 µM (inactive); with SNB-19, > 100 µM (inactive); with EKVX, > 100 µM (inactive); with ACHN, > 100 µM (inactive); in the assay with UACC-62 it was > 37.6 µM (inactive).
In the case of `Cc1cccc(N2C(=O)C(Cl)=C(Cl)C2=O)c1`, the GI50 with SK-MEL-28 was > 54.5 µM (inactive); in the assay on OVCAR-5, > 100 µM (inactive); in the assay on TK-10, > 66.8 µM (inactive); with NCI-H460, > 100 µM (inactive); in the assay on SR, 18.2 µM (inactive); with LXFL 529 it was > 41.6 µM (inactive). Also, the GI50 was > 100 µM (inactive) in the assay with HL-60; > 50.6 µM (inactive) in the assay with OVCAR-3; > 100 µM (inactive) in the assay on SF-539; > 55.8 µM (inactive) with M14; > 100 µM (inactive) with HCC 2998; > 100 µM (inactive) in the assay on A498. For the same compound, the GI50 is > 100 µM (inactive) with OVCAR-8; > 100 µM (inactive) in the assay on SK-MEL-2; > 100 µM (inactive) in the assay with SNB-19; > 74 µM (inactive) in the assay on EKVX; > 49.1 µM (inactive) in the assay with ACHN; > 64.7 µM (inactive) with UACC-62.
For `COc1cc2c[n+](C)c3c4cc5c(cc4ccc3c2cc1OC)OCO5` [NITIDINE CHLORIDE], the GI50 is 9.38 µM (inactive) with SK-MEL-28; 1.24 µM (inactive) in the assay with OVCAR-5; 29.3 µM (inactive) with TK-10; 1.73 µM (inactive) in the assay on NCI-H460; 0.839 µM (active) in the assay on SR; 1.4 µM (inactive) in the assay with LXFL 529. For the same compound, the GI50 with HL-60 is 4.25 µM (inactive); in the assay on OVCAR-3 it was 2.24 µM (inactive); in the assay on SF-539, 1.78 µM (inactive); in the assay on M14 it was 17.1 µM (inactive); in the assay on HCC 2998, 2.07 µM (inactive); in the assay with A498, 1.09 µM (active). In addition, the GI50 with OVCAR-8 is 1.81 µM (inactive); with SK-MEL-2, 2.68 µM (inactive); with DU-145, 2.52 µM (inactive); with SNB-19, 0.698 µM (active); in the assay with EKVX, 1.7 µM (inactive); with ACHN, 71.9 µM (inactive). Besides, in the assay on UACC-62, the GI50 was 1.25 µM (inactive).
Consider `Cc1c(N)nc([C@H](CC(N)=O)NC[C@H](N)C(N)=O)nc1C(=O)N[C@H](C(=O)N[C@H](C)[C@@H](O)[C@H](C)C(=O)N[C@H](C(=O)NCCc1nc(-c2nc(C(=O)NCCC[S+](C)C)cs2)cs1)[C@@H](C)O)C(OC1OC(CO)C(O)C(O)C1OC1OC(CO)C(O)C(OC(N)=O)C1O)c1c[nH]cn1` (stereo partly drawn), for which the GI50 in the assay on SK-MEL-28 was 18.2 µM (inactive); in the assay on OVCAR-5 it was 2.35 µM (inactive); in the assay on TK-10 it was 10.8 µM (inactive); in the assay with NCI-H460 it was 0.0644 µM (active); in the assay with SR it was 0.109 µM (active); with LXFL 529, 16.9 µM (inactive). Further, the GI50 with HL-60 is 5.73 µM (inactive); in the assay on OVCAR-3, 4.67 µM (inactive); in the assay on SF-539, 0.02 µM (active); in the assay with M14, 1.56 µM (inactive); in the assay on HCC 2998 it was 9.62 µM (inactive); in the assay on A498 it was 3.24 µM (inactive). The GI50 in the assay on OVCAR-8 was 3.26 µM (inactive); with SK-MEL-2, 13.7 µM (inactive); with DU-145, 3.66 µM (inactive); in the assay with SNB-19, 3.96 µM (inactive); in the assay on EKVX, 17.8 µM (inactive); with ACHN, 0.00802 µM (active). Also, the GI50 in the assay with UACC-62 is 0.451 µM (active).
Consider `OCc1ccc(-c2ccc(-c3ccc(CO)s3)o2)s1`, for which the GI50 is 42.7 µM (inactive) in the assay on SK-MEL-28; 0.02 µM (active) in the assay with OVCAR-5; 0.0249 µM (active) in the assay with TK-10; 0.0557 µM (active) in the assay with NCI-H460; 3.6 µM (inactive) in the assay on SR; 0.0158 µM (active) in the assay with LXFL 529. For the same compound, the GI50 in the assay with HL-60 is 3.56 µM (inactive); in the assay with OVCAR-3 it was 0.0703 µM (active); in the assay with SF-539 it was 14.2 µM (inactive); with M14 it was 30 µM (inactive); in the assay with HCC 2998, 0.394 µM (active); in the assay on A498, 0.0151 µM (active). Further, the GI50 with OVCAR-8 was 12.1 µM (inactive); in the assay on SK-MEL-2, 23.9 µM (inactive); in the assay with DU-145, 6.07 µM (inactive); with SNB-19, 28.8 µM (inactive); with T47D, 0.31 µM (active); in the assay with EKVX it was 26.3 µM (inactive). Also, the GI50 in the assay on ACHN is 11.3 µM (inactive); with UACC-62, 0.0142 µM (active).
On to `Cc1c(N)nc(C(CC(N)=O)NCC(N)C(N)=O)nc1C(=O)NC(C(=O)NC(C)C(O)C(C)C(=O)NC(C(=O)NCCc1nc(-c2nc(C(=O)NCCCNC(C)c3ccccc3)cs2)cs1)C(C)O)C(OC1OC(CO)C(O)C(O)C1OC1OC(CO)C(O)C(OC(N)=O)C1O)c1c[nH]cn1` (stereo not drawn), for which the GI50 in the assay on SK-MEL-28 was 31.5 µM (inactive); in the assay on OVCAR-5, 5.96 µM (inactive); with TK-10 it was 40.5 µM (inactive); in the assay with NCI-H460, 0.0482 µM (active); in the assay on SR, 2.3 µM (inactive); in the assay with LXFL 529 it was 23.9 µM (inactive). For the same compound, the GI50 is 7.59 µM (inactive) with HL-60; 8.05 µM (inactive) with OVCAR-3; 0.0233 µM (active) in the assay on SF-539; 3.27 µM (inactive) with M14; 21.6 µM (inactive) in the assay on HCC 2998; 1.69 µM (inactive) in the assay with A498. Further, the GI50 is 5.11 µM (inactive) in the assay on OVCAR-8; 16.8 µM (inactive) in the assay with SK-MEL-2; 7.29 µM (inactive) in the assay on DU-145; 8.39 µM (inactive) in the assay with SNB-19; 5.26 µM (inactive) in the assay with T47D; 47.1 µM (inactive) with EKVX. For the same compound, the GI50 in the assay on ACHN is 0.0208 µM (active); in the assay with UACC-62, 0.706 µM (active).
As for `O=C1C=CC(=O)c2c(O)ccc(O)c21` [NAPHTHAZALIN], the GI50 was 1.34 µM (inactive) in the assay with SK-MEL-28; 6.95 µM (inactive) in the assay with OVCAR-5; 1.26 µM (inactive) with TK-10; 2.47 µM (inactive) with NCI-H460; 0.222 µM (active) in the assay on SR; 0.535 µM (active) in the assay with LXFL 529. Also, the GI50 was 0.292 µM (active) in the assay on HL-60; 2.09 µM (inactive) in the assay with OVCAR-3; 2.49 µM (inactive) in the assay on SF-539; 0.581 µM (active) in the assay with M14; 4.66 µM (inactive) with HCC 2998; 2.96 µM (inactive) in the assay on A498. In addition, the GI50 with OVCAR-8 was 0.91 µM (active); in the assay with SK-MEL-2, 7.64 µM (inactive); in the assay with DU-145 it was 14.8 µM (inactive); in the assay with SNB-19, 8.41 µM (inactive); in the assay on T47D it was 2.07 µM (inactive); with EKVX, 2.75 µM (inactive). Moreover, the GI50 in the assay with ACHN is 1.21 µM (inactive); with UACC-62, 1.48 µM (inactive).
